# Source: patent US6750212B2, “Photochemotherapeutic compositions” (PhotoCure AS, priority 1997, dated 2004)
# Legend:
# [1] = tested on: Human rectal papillary villous adenomas; test: Fluorescence localization in human rectal papillary villous adenomas by fluorescence microscopy; assay type: in vivo; details: 4.5 hours after oral administration of 60 mg/kg ALA; FIG. 3 B
# Procedure: Human rectal papillary villous adenomas from 2 patients with severe dysplasia and with a diarrheal history for some months before diagnosis were sampled 44 hours after intravenous injection of 2 mg/kg body weight PHOTOFRIN® vascular stroma-localizing photosensitizer or 4.5 hours after oral administration of 60 mg/kg ALA. The samples were immediately immersed in liquid nitrogen, then mounted in medium (Tissue Tek II embedding compound: BDH, Poole, UK). Frozen tissue sections were cut with a cryostat to a thickness of 8 Am and mounted on clean glass slides. The fluorescence localization patterns of ALA-induced PpIX and PHOTOFRIN were studied by fluorescence microscopy. The fluorescence microscopy was carried out with an Axioplan microscope (Zeiss, Germany). The filter combination comprised a 390-440 nm excitation filter, a 460 nm beam splitter and a >600 nm emission filter. The fluorescence images were recorded by a CCD camera (Astromed CCD 3200, Cambridge, UK) and an image processing unit (Astromed/Visilog, PC 486DX2 66 MHz VL).
# Colon carcinoma WiDr = test: PDT of WiDr colon carcinoma in nude mice, Curelight broad-band lamp one hour after drug, regression/regrowth time; assay type: in vivo, Balb/c nu/nu nude mice; details: for effect on tumor growth after PDT: Example 5.1, FIG. 4, 5-ALA 250 mg/kg i.p. and/or chlorin e6 1 mg/kg i.v., lamp 161 mW/cm^2 15 minutes, one hour after injection; for anti-tumour effect after PDT: Example 5.2, FIG. 5, ALA-methyl ester 273 mg/kg i.p. and/or A1PcS2a 1 mg/kg i.v.
# Procedure: 5-ALA (ALA) and ALA-Methyl ester (ME) were dissolved in isotonic saline to a final concentration of […].
# ALA-Butyl ester (BU) was dissolved in a small amouont of ethanol and diluted further in isotonic saline to a final concentration of […] (final ethanol concentration was 2% v/v).
# Aluminium phthalocyanine di-sulfonate (A1PcS2a) (Porphyrin Products Inc.) dissolved in a few drops of 1M NaOH and diluted in phosphate buffered saline (PBS, 10 MM Na-phosphate pH 7.4/150 mM NaCl) to a final concentration of 0.25 mg/ml.
# Chlorin e6 (e6)(Porphyrin Products Inc.) was dissolved in PBS to a final concentration of 0.25 mg/ml.
# ALA, ALA methyl ester or ALA butyl ester were administered intraperitoneally (i.p.), whereas the sensitizers were injected intravenously (i.v.).
# All animals received the same amount of ALA (1.5 mmole), either as the free acid or in the form of an ester. […]
# Suspensions of the human tumour (Colon carcinoma WiDr-propagated by serial transplantation) was prepared from non-necrotic areas of the respective tumours and injected (20 μl) into the right hind foot of each mouse. […] Injection volume: 100 μl per mouse (approx. 25 g bodyweight).
# Illumination occurred one hour after injection of the drugs instead of three hours that was used in previous examples. In contrast to previous examples, a broad-band lamp that covers the range of 600 to 700 nm (Curelight, patent applied for by PhotoCure AS) was used instead of the laser. This was because the light should cover combinations of phthalocyanines (absorption maximum 670 nm) and protoporphyrin IX (absorption maximum 630 nm) induced by ALA or ALA-esters, respectively.
# The average tumour volume in each group (mean ±SD) was calculated and plotted against time. The experiment was terminated when the tumor volume had reached 4-5 times the initial volume.
# One hour after injection of the drugs the mice were irradiated using the Curelight broad-band lamp (161 mW/cm^2 for 15 minutes-144.9 J/cm^2).
# Responses of the tumors were evaluated as regression/regrowth time. The size of the tumours were measured every second day and the tumour volumes calculated according to the formula in Example 2. The mice were sacrificed when the tumour volume had reached 5 times the initial volume. For each time point, the mean (and the standard deviation of the mean) tumour volume (n=4-5) were calculated. The data were then submitted to statistical analysis (Q-test/90% confidence interval) and extreme values were rejected.
# [2] = tested on: WiDr human colonic carcinoma; test: PDT of WiDr human colonic carcinoma in nude mice, laser light 3 hours after drug, tumor regression/regrowth time; assay type: in vivo, Balb/c nu/nu nude mice
# Source text: 5-aminolevulinic acid (ALA) hydrochloride was purchased from Sigma Chemical Company (St. Louis, Mo.). ALA was freshly dissolved in isotonic saline and given intraperitoneally to mice. PHOTOFRIN® vascular stroma-localizing photosensitizer was obtained from Quadra Logic Technologies (Vancouver, Canada). The solution of PHOTOFRIN® vascular stroma-localizing photosensitizer was made up in isotonic solution containing 5% dextrose and given to mice intravenously via the tail vein.
# Female Balb/c nu/nu nude mice were obtained from The Animal Department, The Norwegian Radium Hospital, housed 10 per cage and kept under specific-pathogen-free conditions. The mice were 6 weeks old and weighed 20-22 g when the experiments started. The WiDr human colonic carcinoma, used in the present study, was propagated by serial transplantation into the nude mice. Non-necrotic tumor material for inoculation was obtained by sterile dissection of large flange tumors from syngeneic mice. Macroscopically viable tumor tissue was gently minced with a pair of scissors and forced repeatedly through sterile needles of diminishing sizes from 19-gauge to 25-gauge to make a tumor-tissue suspension, 0.02 ml of which was then injected into the dorsal side of the right hind foot of each mouse. The rate of successful transplantations was nearly 100% in the present experiments. […] The tumor volume was calculated using the following formula: […]
# where D1, D2 and D3 are three orthogonal diameters of the tumors which were measured daily by a caliper.
# Unanesthetized mice were fixed in Lucite jigs specially designed for irradiation. The tumor area was exposed to red light from a dicyanomethylane-2-methyl-6-(p-dimethylaminostyryl)-4 H-pyran (DCM) dye laser pumped by a 5W argon ion laser (Spectra Physics, 164). The tuning range was 610-690 nm. The dye laser was tuned at 632 for both ALA-derived PpIX and PHOTOFRIN®vascular stroma-localizing photosensitizer, the tuning being controlled by means of a monochromator. […]
# Responses of the treated tumors were evaluated as described previously.
# [3] = Example 3, FIG. 2, ALA 250 mg/kg i.p. (632 nm) and/or m-THPC 75 μg/kg i.v. (652 nm), laser light 3 hours after drug
# [4] = Example 5.4, FIG. 7, 5-ALA butyl ester 338 mg/kg i.p. and/or A1PcS2a 1 mg/kg i.v., lamp one hour after injection
# [5] = Example 5.5, FIG. 8, 5-ALA methyl ester 273 mg/kg i.p. and/or A1PcS4 1 mg/kg i.v., lamp one hour after injection
molecule,measurement,setting,value
"NCC(=O)CCC(=O)O [ALA, 5-aminolevulinic acid]",fluorescence localization of ALA-induced porphyrins in tumor tissue,[1],almost entirely localized within the tumor cells
same,effect on tumor growth after PDT,Colon carcinoma WiDr,had no effect
same,effect on tumor growth after PDT,"[2]; Example 2, FIG. 1, ALA 250 mg/kg i.p. and/or PHOTOFRIN 1 mg/kg i.v., laser 632 nm, 150 mW/cm^2 for 15 min, 3 hours after drug",had an effect on the tumor growth
same,effect on tumor growth after PDT,[2]; [3],had an effect on the tumor growth
C=Cc1c(C)c2cc3nc(c(CC(=O)O)c4[nH]c(cc5nc(cc1[nH]2)C(C)=C5CC)c(C)c4C(=O)O)[C@@H](CCC(=O)O)[C@@H]3C [chlorin e6],effect on tumor growth after PDT,Colon carcinoma WiDr,had no effect
"CCCCOC(=O)CCC(=O)CN [ALA butyl ester, 5-ALA butyl ester]",time for tumours to reach 4 times the initial volume,"Colon carcinoma WiDr; Example 5.3, FIG. 6, 5-ALA butyl ester 338 mg/kg i.p. alone, lamp one hour after injection",11 days
same,effect on tumour growth after PDT,Colon carcinoma WiDr; [4],almost no effect
Aluminium phthalocyanine tetra-sulfonate [A1PcS4],effect on tumour growth after PDT,"Colon carcinoma WiDr; Example 5.3, FIG. 6, 5-ALA butyl ester 338 mg/kg i.p. and/or A1PcS4 1 mg/kg i.v., lamp one hour after injection",moderate effect on tumour growth
same,effect on tumour growth after PDT,"Colon carcinoma WiDr; Example 5.3, FIG. 6, high dose A1PcS4 5 mg/kg i.v. alone, lamp one hour after injection",strongly delayed growth
same,effect on tumour growth after PDT,Colon carcinoma WiDr; [5],intermediate effect
"Oc1cccc(-c2c3nc(c(-c4cccc(O)c4)c4ccc([nH]4)c(-c4cccc(O)c4)c4nc(c(-c5cccc(O)c5)c5ccc2[nH]5)CC4)C=C3)c1 [m-THPC, tetra(meso-hydroxyphenyl)chlorin]",effect on tumor growth after PDT,[2]; [3],no effect
Aluminium phthalocyanine di-sulfonate [A1PcS2a],anti-tumour effect after PDT,Colon carcinoma WiDr; lamp one hour after injection,a slight effect
same,effect on tumour growth after PDT,Colon carcinoma WiDr; [4],immediate effect
same,time to 4× initial tumour volume,"Colon carcinoma WiDr; Example 5.4, FIG. 7, A1PcS2a 1 mg/kg i.v. alone, lamp one hour after injection",≤ 14 days
"COC(=O)CCC(=O)CN [ALA-methyl ester, 5-ALA methyl ester]",anti-tumour effect after PDT,Colon carcinoma WiDr; lamp one hour after injection,had no anti-tumour effect
same,effect on tumour growth after PDT,Colon carcinoma WiDr; [5],did not have any effect on tumor growth
